From patent US11220674B2, “Stabilization of dehydrogenases with stable coenzymes” (ROCHE DIABETES CARE, INC., priority 2009, dated 2022)

How the values were obtained:
[1] = target: glucose dehydrogenase/NAD system (Bacillus subtilis, UniProt P12310); experiment: Photometric glucose determination with GlucDH/NAD, mediator and 2,18-phosphomolybdic acid (reflectance); settings: for reflectance of the measured sample: glucose concentration in the region of 800 mg/dl; for reflectance versus glucose concentration: test elements stored at room temperature for 11 weeks, GlucDH, NAD, mediator, 2,18-phosphomolybdic acid
Procedure: To determine glucose, various test systems which included in each case glucose dehydrogenase, NAD, a mediator and, where appropriate, an optical indicator were measured photometrically and electrochemically.
For photometric measurements, initially four test elements which had in each case been stored at room temperature for 11 weeks and comprised 2,18-phosphomolybdic acid, besides glucose dehydrogenase, NAD and a mediator, were investigated with various glucose concentrations.

[2] = target: T1, alcohol dehydrogenase from yeast (Saccharomyces cerevisiae, UniProt P00330); experiment: Stability of alcohol dehydrogenase in liquid phase at 35° C. with coenzyme (residual activity); type: biochemical; settings: after 65 hours at 35° C.
T1 sequence (P00330 1-348): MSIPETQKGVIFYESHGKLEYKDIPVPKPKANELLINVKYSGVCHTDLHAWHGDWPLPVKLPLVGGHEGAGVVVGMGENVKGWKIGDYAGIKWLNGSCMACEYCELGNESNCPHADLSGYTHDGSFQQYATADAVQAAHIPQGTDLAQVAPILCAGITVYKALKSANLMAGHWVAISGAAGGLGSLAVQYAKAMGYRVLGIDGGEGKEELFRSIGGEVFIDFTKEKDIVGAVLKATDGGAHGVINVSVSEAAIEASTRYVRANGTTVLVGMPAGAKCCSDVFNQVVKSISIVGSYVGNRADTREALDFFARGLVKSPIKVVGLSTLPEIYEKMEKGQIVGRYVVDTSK
Procedure: FIG. 14 is a depiction of the stability of alcohol dehydrogenase from yeast in the presence of NAD and cNAD, respectively, in liquid phase at 35° C. over a period of 65 hours. Test conditions: ADH 5 mg/ml; NAD and cNAD, respectively, 50 mg/ml; buffer: 75 mM Na4P207, glycine, pH 9.0; temperature 35° C.
(§1) cNAD or NAD were added to an alcohol detection solution. These mixtures were stored at 35° C. The stability of the enzyme was then checked at regular intervals, and the residual activity of the enzyme was determined.
After 65 hours at 35° C., the residual activity of alcohol dehydrogenase in the presence of the native coenzyme NAD is about 6%, whereas the residual activity of the enzyme in the presence of the artificial coenzyme cNAD is still about 60%.

[3] = target: T2, glucose dehydrogenase (GlucDH) (Bacillus subtilis, UniProt P12310); experiment: Stability of GlucDH in liquid phase at 50° C. with coenzyme (residual activity); type: biochemical
Procedure: FIG. 11A is a depiction of the stability of glucose dehydrogenase in the presence of NAD and cNAD, respectively, in liquid phase at 50° C. over a period of 4 days Test conditions: GlucDH 10 mg/ml; NAD and cNAD, respectively, 12 mg/ml; buffer: 0.1 M Tris, 1.2 M NaCl, pH 8.5; temperature 50° C.
FIG. 11B is a depiction of the stability of glucose dehydrogenase in the presence of NAD and cNAD, respectively, in liquid phase at 50° C. over a period of 14 days at the same test conditions as FIG. 11A.
After 95 hours at 50° C., the residual activity of glucose dehydrogenase in the presence of the native coenzyme NAD is ≈5%, whereas the residual activity of GlucDH in the presence of the artificial coenzyme cNAD is 75% (FIG. 11A). After storage at 50° C. for 336 hours, the residual activity of the enzyme stabilized with NAD is now only about 1%; the residual activity of the enzyme stored in the presence of cNAD is observed to be still about 70%.

[4] = target: glucose dehydrogenase (GlucDH), wild-type (Bacillus subtilis, UniProt P12310); experiment: Residual activity of GlucDH after dry storage on film with coenzyme; type: biochemical
Procedure: (§2) Carba-NAD (FIG. 1A) or NAD were added to the glucose-specific GlucDH. These formulations were in each case applied to Pokalon film (Lonza) and, after drying, stored under warm and moist conditions (32° C., 85% relative humidity). The reaction kinetics and the function plot were subsequently determined at regular intervals. In parallel, at each of the times of measurement a cNAD/NAD analysis and a determination of the residual activity of the enzyme were carried out.
The result of the determination of residual activity of the active GlucDH enzyme after 5 weeks at 32° C. and 85% relative humidity (FIG. 7A) is completely surprising. […] After 24 weeks at 32° C. and 85% relative humidity (FIG. 7B), the residual activity of the enzyme on stabilization with cNAD is still about 25%.

[5] = target: T1, alcohol dehydrogenase from yeast; experiment: SDS gel electrophoresis of alcohol dehydrogenase after storage with coenzyme
Procedure: Test conditions: MW, 10 220 kDa markers; 1: ADH, 65 hours at 6° C.; 2: ADH/cNAD, 65 hours at 6° C.; 3: ADH/NAD, 65 hours at 6° C.; 4: ADH, 65 hours at 35° C.; 5: ADH/cNAD, 65 hours at 35° C.; 6: ADH/NAD, 65 hours at 35° C.
Test conditions: MW, 10 220 kDa markers; 1: ADH/NAD, 0 days; 2: ADH/NAD, 1 day; 3: ADH/NAD, 2 days; 4: ADH/NAD, 3 days; 5: ADH/NAD, 5 days; 6: ADH/cNAD, 0 days; 7: ADH/cNAD, 1 day; 8: ADH/cNAD, 2 days; 9: ADH/cNAD, 3 days; 10: ADH/cNAD, 6 days.
as §1

[6] = target: GlucDH_E96G_E170K (GlucDH-Mut1) (Bacillus subtilis, UniProt P12310, A229V/A236S/E170K/E96G/Q252K); experiment: Residual activity of GlucDH mutant after dry storage with coenzyme; type: biochemical; settings: storage at 32° C. and 85% relative humidity for 24 weeks
Procedure: (§3) FIG. 8 is a depiction of the GlucDH activity after storage of glucose dehydrogenase (GlucDH wt), the double mutant GlucDH_E96G_EI70K (GlucDH Mut1) and the double mutant GlucDH_E170K_K252L (GlucDH Mut2) in the presence of NAD and cNAD, respectively, at 32° C. and 83% relative humidity over a period of 25 weeks.
as §2
(§4) If a mutant is used instead of the wild-type enzyme (from Bacillus subtilis), it is possible to increase the residual GlucDH activity even further. […]

[7] = target: GlucDH_E170K_K252L (GlucDH-Mut2) (Bacillus subtilis, UniProt P12310, A229V/A236S/E170K/Q252L); experiment: as above; type: biochemical; settings: storage at 32° C. and 85% relative humidity for 24 weeks
Procedure: as §3, §2, §4

[8] = target: T2, glucose dehydrogenase (GlucDH); experiment: SDS gel electrophoresis of GlucDH after storage with coenzyme
Procedure: Test conditions: MW, 10 220 kDa markers; 1: GlucDH/NAD, 5 weeks at 6° C.; 2: GlucDH/NAD, 5 weeks at 32° C./85% relative humidity; 3: GlucDH/cNAD, 5 weeks at 6° C.; 4: GlucDH/cNAD, 5 weeks at 32° C./85% relative humidity.
Test conditions: MW, 10 220 kDa markers; 1: GlucDH 8.5 mg/ml, NAD, 0 hours; 2: GlucDH 8.5 mg/ml, NAD, 22 hours; 3: GlucDH 8.5 mg/ml, NAD, 96 hours; 4: GlucDH 8.5 mg/ml, NAD, 118 hours; 5: GlucDH 8.5 mg/ml, NAD, 140 hours; 6: GlucDH 8.5 mg/ml, NAD, 188 hours; 7: GlucDH 8.5 mg/ml, NAD, 476 hours; 8: GlucDH 8.5 mg/ml, cNAD, 0 hours; 9: GlucDH 8.5 mg/ml, cNAD, 188 hours; 10: GlucDH 8.5 mg/ml, cNAD, 476 hours.

[9] = target: T2, glucose dehydrogenase (GlucDH); experiment: Reaction kinetics, function plot and dry blank value of GlucDH test film after storage; type: biochemical
Procedure: as §2
However, a distinct difference in the kinetics plots is evident after 5 weeks.
There is also a distinct difference in the blank values (dry blank value before application of a blood sample), as is evident from FIG. 3.
The differing stability of glucose dehydrogenase in the presence of NAD and cNAD, respectively, is also evident from comparison of FIGS. 4 and 5.

[10] = Residual content of coenzyme in glucose detection reagent after dry storage on film (cNAD/NAD analysis); type: physicochemical; settings: storage at 32° C. and 85% relative humidity for 24 weeks
Procedure: as §2
The relation between structure of the coenzyme and its stability over a predetermined period is evident from FIG. 6. According to this, the residual content of cNAD in a glucose detection reagent after storage (at 32° C. and 85% relative humidity) for 24 weeks is still about 80% of the initial level, whereas the content of NAD in a glucose detection reagent stabilized with NAD declines after only 5 weeks to about 35% of the initial level and, by extrapolation, is reduced to zero after about 17 weeks.

glucose dehydrogenase = glucose dehydrogenase (Bacillus subtilis, UniProt P12310); experiment: Electrochemical glucose determination with GlucDH, coenzyme and mediator (current); settings: 25 mM coenzyme; mediator 1-(3-carboxypropoxy)-5-ethylphenazinium trifluoromethanesulfonate
Procedure: FIG. 20 is a depiction of the current measured as a function of the glucose concentration in the electrochemical determination of glucose using glucose dehydrogenase in the presence of NAD and cNAD, respectively. Test conditions: 25 mM NAD and cNAD, respectively; 2.5 seconds delay; 5 seconds measurement time.
As alternative to photometry it is also possible to employ an electrochemical measurement for the purpose of determining analytes.

[11] = storage at 50° C. for 336 hours
[12] = after 5 weeks at 32° C. and 85% relative humidity, versus samples stored in refrigerator with desiccant

Compound	reflectance of the measured sample [1]	reflectance versus glucose concentration [1]	residual activity of alcohol dehydrogenase [2]	residual activity of glucose dehydrogenase ([3]; after 95 hours at 50° C.)	residual activity of glucose dehydrogenase [3, 11]	residual activity of GlucDH enzyme [4, 12] [%]	other results
Cl.O=Nc1ccc(N(CO)CO)cc1 [Med A, [(4-nitrosophenyl)imino]dimethanol hydrochloride]	about 20%	a fall in the reflectance was observed with increasing glucose concentration					
C[n+]1cccc2c1-c1ncccc1C(=O)C2=O.O=S(=O)([O-])C(F)(F)F [Med B, 1-methyl-5,6-dioxo-5,6-dihydro-1, 10-phenanthrolinium trifluoromethanesulfonate]		a fall in the reflectance was observed with increasing glucose concentration					
C[n+]1cccc2c1C(=O)C(=O)c1cccnc1-2.O=S(=O)([O-])C(F)(F)F [Med F, 7-methyl-5,6-dioxo-5,6-dihydro-1,7-phenanthrolinium trifluoromethanesulfonate]		a fall in the reflectance was observed with increasing glucose concentration					
CC[n+]1c2ccccc2nc2c(OCCCC(=O)O)cccc21.O=S(=O)([O-])C(F)(F)F [Med G, 1-(3-carboxypropoxy)-5-ethylphenazinium trifluoromethanesulfonate]	about 20%	a fall in the reflectance was observed with increasing glucose concentration					
NC(=O)c1ccc[n+]([C@@H]2O[C@H](COP(=O)([O-])OP(=O)(O)OC[C@H]3O[C@@H](n4cnc5c(N)ncnc54)[C@H](O)[C@@H]3O)[C@@H](O)[C@H]2O)c1 [NAD, nicotinamide adenine dinucleotide, reference compound]			about 6%	≈ 5%	about 1%	0.5	
NC(=O)c1ccc[n+]([C@@H]2C[C@H](COP(=O)([O-])OP(=O)(O)OC[C@H]3O[C@@H](n4cnc5c(N)ncnc54)[C@H](O)[C@@H]3O)[C@@H](O)[C@H]2O)c1 [cNAD, carba-NAD]			about 60%	75%	about 70%	70	alcohol dehydrogenase band in SDS gel ([5]; storage at 35° C., NAD 5 days, cNAD 6 days): distinctly less decomposition of the enzyme; alcohol dehydrogenase band in SDS gel ([5]; storage for 65 hours at 35° C. (versus 6° C.)): differ only slightly; residual activity of GlucDH_E96G_E170K mutant [6]: about 70%; residual activity of GlucDH_E170K_K252L mutant [7]: about 50%; enzyme band in SDS gel ([8]; storage at 50° C., after 476 hours): only slight change; enzyme band in SDS gel ([8]; storage for 5 weeks at 32° C. and 85% relative humidity): still identifiable as a band with the expected mobility; function plot of GlucDH after storage ([9]; after 5 weeks at 32° C., 85% humidity): still in the bunch of previous measurements; kinetics plots of GlucDH after storage ([9]; after 5 weeks at 32° C., 85% relative humidity): remain virtually unchanged; function plot of GlucDH after storage ([9]; over 24 weeks at 32° C., 85% humidity): only slightly changed at high glucose concentrations; dry blank value (before application of blood sample) ([9]; up to 5 weeks at 32° C., 85% humidity): this does not occur; residual content of coenzyme in glucose detection reagent [10]: about 80 % of the initial level; current required to reoxidize the reduced mediator versus glucose concentration (glucose dehydrogenase): linearly dependent on the glucose concentration; residual activity of GlucDH enzyme ([4]; after 24 weeks at 32° C. and 85% relative humidity): about 25%
